In patent publication US11945813B2, “5-substituted 4-amino-1H-benzo[c][1,2,6]thiadiazine 2,2-dioxides and formulations and uses thereof” (Firmenich Incorporated, priority 2018, dated 2024):

Target: T1, T1R2/T1R3 taste receptor (Homo sapiens, UniProt Q8TE23)
T1 sequence (Q8TE23 20-839): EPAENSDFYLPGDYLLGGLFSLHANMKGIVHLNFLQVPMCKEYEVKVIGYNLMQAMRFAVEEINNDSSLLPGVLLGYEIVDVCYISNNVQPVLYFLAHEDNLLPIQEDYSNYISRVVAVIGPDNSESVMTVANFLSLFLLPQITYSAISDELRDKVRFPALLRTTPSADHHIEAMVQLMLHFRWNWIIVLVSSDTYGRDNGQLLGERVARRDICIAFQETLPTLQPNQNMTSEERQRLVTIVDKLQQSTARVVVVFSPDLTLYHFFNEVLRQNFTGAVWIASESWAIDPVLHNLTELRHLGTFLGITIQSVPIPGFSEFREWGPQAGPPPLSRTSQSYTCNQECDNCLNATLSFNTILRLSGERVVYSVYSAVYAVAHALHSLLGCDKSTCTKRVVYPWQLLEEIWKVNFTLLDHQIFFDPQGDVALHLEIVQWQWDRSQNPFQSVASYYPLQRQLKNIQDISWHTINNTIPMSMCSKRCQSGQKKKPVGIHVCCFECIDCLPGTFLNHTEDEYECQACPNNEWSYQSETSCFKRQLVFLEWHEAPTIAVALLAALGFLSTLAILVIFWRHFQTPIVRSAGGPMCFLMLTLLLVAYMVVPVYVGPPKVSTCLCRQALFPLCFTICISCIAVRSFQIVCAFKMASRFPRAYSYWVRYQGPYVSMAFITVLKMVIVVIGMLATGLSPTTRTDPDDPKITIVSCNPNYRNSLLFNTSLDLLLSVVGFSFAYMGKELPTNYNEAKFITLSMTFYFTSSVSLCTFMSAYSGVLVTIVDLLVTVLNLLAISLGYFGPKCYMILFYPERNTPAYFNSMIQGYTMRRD
T1 sequence (Q7RTX0 21-852 partner): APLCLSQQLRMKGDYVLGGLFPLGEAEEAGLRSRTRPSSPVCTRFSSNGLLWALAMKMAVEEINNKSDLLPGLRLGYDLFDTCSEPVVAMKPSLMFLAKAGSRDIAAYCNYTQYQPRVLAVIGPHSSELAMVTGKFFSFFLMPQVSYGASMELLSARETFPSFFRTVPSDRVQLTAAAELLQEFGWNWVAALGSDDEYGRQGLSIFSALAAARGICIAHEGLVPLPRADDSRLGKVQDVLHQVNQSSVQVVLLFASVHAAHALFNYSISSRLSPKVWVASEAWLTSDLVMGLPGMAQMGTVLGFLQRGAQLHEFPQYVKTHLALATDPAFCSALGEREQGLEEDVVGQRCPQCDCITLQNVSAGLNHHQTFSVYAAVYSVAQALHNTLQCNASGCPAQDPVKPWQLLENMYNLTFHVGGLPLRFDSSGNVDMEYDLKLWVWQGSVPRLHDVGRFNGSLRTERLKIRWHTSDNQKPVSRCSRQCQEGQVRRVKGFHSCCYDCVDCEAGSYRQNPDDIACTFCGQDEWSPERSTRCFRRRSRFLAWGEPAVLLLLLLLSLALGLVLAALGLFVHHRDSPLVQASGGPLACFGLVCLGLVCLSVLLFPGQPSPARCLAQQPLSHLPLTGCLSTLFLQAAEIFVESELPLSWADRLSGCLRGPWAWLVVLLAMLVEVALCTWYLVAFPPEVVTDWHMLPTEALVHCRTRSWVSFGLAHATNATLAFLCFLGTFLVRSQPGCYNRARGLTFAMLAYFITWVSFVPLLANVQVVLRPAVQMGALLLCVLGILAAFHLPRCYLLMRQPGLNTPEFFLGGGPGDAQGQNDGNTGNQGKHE
Assay: Receptor-based assay: sweetener EC50 alone and with test compound (enhancement ratio)
Format: cell-based
Conditions: for Fructose Enhancement EC50 Ratio: sweetener fructose; for Sucralose Enhancement EC50 Ratio: sweetener sucralose; for Sucrose Enhancement EC50 Ratio: sweetener sucrose
Outline: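 Sucrose, sucralose or fructose EC50 measured on human T1R2/T1R3, alone and with 3, 10 or 50 μM test compound. Enhancement is the EC50 ratio without/with compound, binned A >20, B 10-20, C >1 to <10.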

Compound	Fructose Enhancement EC50 Ratio (50 μM test compound)	Sucralose Enhancement EC50 Ratio (10 μM test compound)	Sucralose Enhancement EC50 Ratio (50 μM test compound)	Sucrose Enhancement EC50 Ratio (3 μM test compound)	Sucrose Enhancement EC50 Ratio (10 μM test compound)	Sucrose Enhancement EC50 Ratio (50 μM test compound)	Fructose Enhancement EC50 Ratio (10 μM test compound)
NC1=NS(=O)(=O)Nc2cccc(OC[C@H]3CCCN(c4ccc(C(=O)N5CCCC5)cn4)C3)c21 [Compound 512]	C (A “C” value indicates an enhancement ratio greater than 1 and less than 10)	A (An “A” value indicates an enhancement ratio of greater than 20)	A (An “A” value indicates an enhancement ratio of greater than 20)	C (A “C” value indicates an enhancement ratio greater than 1 and less than 10)	C (A “C” value indicates an enhancement ratio greater than 1 and less than 10)	C (A “C” value indicates an enhancement ratio greater than 1 and less than 10)	
NC1=NS(=O)(=O)Nc2cccc(OC[C@H]3CCCN(c4cccc(C(=O)N5CCOCC5)n4)C3)c21 [Compound 414]	C (A “C” value indicates an enhancement ratio greater than 1 and less than 10)	A (An “A” value indicates an enhancement ratio of greater than 20)		C (A “C” value indicates an enhancement ratio greater than 1 and less than 10)	C (A “C” value indicates an enhancement ratio greater than 1 and less than 10)	B (A “B” value indicates an enhancement ratio from 10 to 20)	C (A “C” value indicates an enhancement ratio greater than 1 and less than 10)
NC1=NS(=O)(=O)Nc2cccc(OC[C@H]3CCCN(c4ccc(C(=O)NC5CCCCC5)cn4)C3)c21 [Compound 509]	C (A “C” value indicates an enhancement ratio greater than 1 and less than 10)	B (A “B” value indicates an enhancement ratio from 10 to 20)	A (An “A” value indicates an enhancement ratio of greater than 20)	C (A “C” value indicates an enhancement ratio greater than 1 and less than 10)	C (A “C” value indicates an enhancement ratio greater than 1 and less than 10)	C (A “C” value indicates an enhancement ratio greater than 1 and less than 10)	
NC1=NS(=O)(=O)Nc2cccc(OC[C@H]3CCCN(c4cccc(C(=O)N5CCCC5)n4)C3)c21 [Compound 412]	C (A “C” value indicates an enhancement ratio greater than 1 and less than 10)	A (An “A” value indicates an enhancement ratio of greater than 20)	A (An “A” value indicates an enhancement ratio of greater than 20)	C (A “C” value indicates an enhancement ratio greater than 1 and less than 10)	C (A “C” value indicates an enhancement ratio greater than 1 and less than 10)	B (A “B” value indicates an enhancement ratio from 10 to 20)	C (A “C” value indicates an enhancement ratio greater than 1 and less than 10)
CN(C)C(=O)c1ccnc(N2CCC[C@H](COc3cccc4c3C(N)=NS(=O)(=O)N4)C2)c1 [Compound 610]	C (A “C” value indicates an enhancement ratio greater than 1 and less than 10)	A (An “A” value indicates an enhancement ratio of greater than 20)	A (An “A” value indicates an enhancement ratio of greater than 20)		C (A “C” value indicates an enhancement ratio greater than 1 and less than 10)	B (A “B” value indicates an enhancement ratio from 10 to 20)	C (A “C” value indicates an enhancement ratio greater than 1 and less than 10)
CN(C)CCNC(=O)c1ccc(N2CCC[C@H](COc3cccc4c3C(N)=NS(=O)(=O)N4)C2)nc1 [Compound 505]	C (A “C” value indicates an enhancement ratio greater than 1 and less than 10)	C (A “C” value indicates an enhancement ratio greater than 1 and less than 10)	A (An “A” value indicates an enhancement ratio of greater than 20)	C (A “C” value indicates an enhancement ratio greater than 1 and less than 10)	C (A “C” value indicates an enhancement ratio greater than 1 and less than 10)	C (A “C” value indicates an enhancement ratio greater than 1 and less than 10)	
CCNC(=O)c1ccnc(N2CCC[C@H](COc3cccc4c3C(N)=NS(=O)(=O)N4)C2)c1 [Compound 601]	C (A “C” value indicates an enhancement ratio greater than 1 and less than 10)			C (A “C” value indicates an enhancement ratio greater than 1 and less than 10)	C (A “C” value indicates an enhancement ratio greater than 1 and less than 10)	A (An “A” value indicates an enhancement ratio of greater than 20)	C (A “C” value indicates an enhancement ratio greater than 1 and less than 10)
NC1=NS(=O)(=O)Nc2cccc(OC[C@H]3CCCN(c4ncc(F)cn4)C3)c21 [Compound 305]	C (A “C” value indicates an enhancement ratio greater than 1 and less than 10)	A (An “A” value indicates an enhancement ratio of greater than 20)	A (An “A” value indicates an enhancement ratio of greater than 20)	C (A “C” value indicates an enhancement ratio greater than 1 and less than 10)	C (A “C” value indicates an enhancement ratio greater than 1 and less than 10)	C (A “C” value indicates an enhancement ratio greater than 1 and less than 10)	C (A “C” value indicates an enhancement ratio greater than 1 and less than 10)
NC1=NS(=O)(=O)Nc2cccc(OC[C@H]3CCCN(c4cc(C(=O)NC5CC5)ccn4)C3)c21 [Compound 607]				A (An “A” value indicates an enhancement ratio of greater than 20)	B (A “B” value indicates an enhancement ratio from 10 to 20)	C (A “C” value indicates an enhancement ratio greater than 1 and less than 10)	C (A “C” value indicates an enhancement ratio greater than 1 and less than 10)
